Patent US7592347B2, “Piperazine derivates and their use for the treatment of neurological and psychiatric diseases” (Glaxo Group Limited, priority 2003, dated 2009)
Counter-ions that a name gives are not always drawn.

Biological target: T1, histamine H3 receptor (Homo sapiens, UniProt Q9Y5N1)
T1 construct: expressed in transfected cells; host or cells: CHO K1 cells carrying pSwitch, transfected with pGeneH3 and induced with mifepristone; clone 3H3; membranes
Assay: Histamine H3 functional antagonist assay ([35S]GTPγS SPA, membranes of CHO K1 cells expressing human H3)
Type: biochemical
Conditions: functional antagonism of histamine (0.3 μM) stimulated [35S]GTPγS binding, membranes of CHO K1 cells with human histamine H3
Procedure: A membrane preparation containing histamine H3 receptors may be prepared in accordance with the following procedures:
Ligated DNA was transformed into competent DH5α E. coli host bacterial cells and plated onto Luria Broth (LB) agar containing Zeocin™ (an antibiotic which allows the selection of cells expressing the sh ble gene which is present on pGene and pSwitch) at 50 μg ml^−1. Colonies containing the re-ligated plasmid were identified by restriction analysis. DNA for transfection into mammalian cells was prepared from 250 ml cultures of the host bacterium containing the pGeneH3 plasmid and isolated using a DNA preparation kit (Qiagen Midi-Prep) as per manufacturers guidelines (Qiagen).
CHO K1 cells previously transfected with the pSwitch regulatory plasmid (InVitrogen) were seeded at 2×10e6 cells per T75 flask in Complete Medium, containing Hams F12 (GIBCOBRL, Life Technologies) medium supplemented with 10% v/v dialysed foetal bovine serum, L-glutamine, and hygromycin (100 μg ml^−1), 24 hours prior to use. Plasmid DNA was transfected into the cells using Lipofectamine plus according to the manufacturers guidelines (InVitrogen). 48 hours post transfection cells were placed into complete medium supplemented with 500 μg ml^−1 Zeocin™.
10-14 days post selection 10 nM Mifepristone (InVitrogen), was added to the culture medium to induce the expression of the receptor. […] Approximately 1×10e7 cells were examined for receptor expression by staining with a rabbit polyclonal antibody, 4a, raised against the N-terminal domain of the histamine H3 receptor, incubated on ice for 60 minutes, followed by two washes in sorting medium. […] Following two further washes with Sorting Medium, cells were filtered through a 50 μm Filcon™ (BD Biosciences) and then analysed on a FACS Vantage SE Flow Cytometer fitted with an Automatic Cell Deposition Unit. […] Positively stained cells were sorted as single cells into 96-well plates, containing Complete Medium containing 500 μg ml^−1 Zeocin™ and allowed to expand before reanalysis for receptor expression via antibody and ligand binding studies.
All steps of the protocol are carried out at 4° C. and with pre-cooled reagents. The cell pellet is resuspended in 10 volumes of buffer A2 containing 50 mM N-2-hydroxyethylpiperazine-N′-2-ethanesulfonic acid (HEPES)(pH 7.40) supplemented with 10e−4M leupeptin (acetyl-leucyl-leucyl-arginal; Sigma L2884), 25 μg/ml bacitracin (Sigma B0125), 1 mM ethylenediamine tetra-acetic acid (EDTA), 1 mM phenylmethylsulfonyl fluoride (PMSF) and 2×10e−6M pepstain A (Sigma). The cells are then homogenised by 2×15 second bursts in a 1 litre glass Waring blender, followed by centrifugation at 500 g for 20 minutes. The supernatant is then spun at 48,000 g.for 30 minutes. The pellet is resuspended in 4 volumes of buffer A2 by vortexing for 5 seconds, followed by homogenisation in a Dounce homogeniser (10-15 strokes). At this point the preparation is aliquoted into polypropylene tubes and stored at −70° C. […]
The plate is then incubated on a shaker at room temperature for 30 minutes followed by centrifugation for 5 minutes at 1500 rpm. The plate is read between 3 and 6 hours after completion of centrifuge run in a Wallac Microbeta counter on a 1 minute normalised tritium count protocol. Data is analysed using a 4-parameter logistic equation. Basal activity used as minimum i.e. histamine not added to well.

T1 sequence (Q9Y5N1 whole entry): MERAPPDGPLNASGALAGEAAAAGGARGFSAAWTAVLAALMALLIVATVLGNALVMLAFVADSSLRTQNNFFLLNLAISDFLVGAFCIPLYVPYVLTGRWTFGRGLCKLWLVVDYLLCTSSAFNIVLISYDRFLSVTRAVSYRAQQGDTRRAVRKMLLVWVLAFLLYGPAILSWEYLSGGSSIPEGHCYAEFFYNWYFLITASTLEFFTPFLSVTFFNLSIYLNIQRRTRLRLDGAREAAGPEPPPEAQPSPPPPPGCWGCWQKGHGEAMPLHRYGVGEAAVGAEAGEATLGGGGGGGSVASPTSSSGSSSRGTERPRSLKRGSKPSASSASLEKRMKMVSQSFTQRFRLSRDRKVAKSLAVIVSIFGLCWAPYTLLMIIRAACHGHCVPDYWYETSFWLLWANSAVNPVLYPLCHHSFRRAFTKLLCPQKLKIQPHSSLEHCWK

| Compound | Kb [nM] |
| --- | --- |
| CC(C)N1CCN(C(=O)C2CCN(c3ccc(C#N)cn3)CC2)CC1 [Example E1, 1-Isopropyl-4-[1-(5-cyano-pyridin-2-yl)-piperidine4-carbonyl]-piperazine hydrochloride] | < 3.16 |
| CC(C)N1CCN(C(=O)C2CCN(c3ccc(C#N)cc3)CC2)CC1 [Example E2, 1-Isopropyl-4-[1-(4-cyanophenyl)-piperidine-4-carbonyl]-piperazine hydrochloride] | < 1 |
| COC(=O)c1cnc(N2CCC(C(=O)N3CCN(C(C)C)CC3)CC2)cc1C(F)(F)F [Example E4, 1-Isopropyl-4-[1-(5-methoxycarbonyl-4-trifluoromethylpyridin-2-yl)-piperidine-4-carbonyl]-piperazine] | < 3.16 |
| CCOC(=O)c1ccc(N2CCC(C(=O)N3CCN(C(C)C)CC3)CC2)cc1 [Example E8, 1-Isopropyl-4-[1-(4ethoxycarbonylphenyl)-piperidine-4-carbonyl]-piperazine] | < 3.16 |
| N#Cc1ccc(N2CCC(C(=O)N3CCN(C4CCC4)CC3)CC2)cc1 [Example E9, 1-Cyclobutyl-4-[1-(4-cyanophenyl)-piperidine-4-carbonyl]-piperazine] | < 3.16 |
| N#Cc1ccc(N2CCC(C(=O)N3CCN(C4CCC4)CC3)CC2)cc1F [Example E10, 1-Cyclobutyl-4-[1-(4-cyano-3-fluorophenyl)-piperidine-4-carbonyl]-piperazine] | < 3.16 |
| N#Cc1cc(F)c(N2CCC(C(=O)N3CCN(C4CCC4)CC3)CC2)c(F)c1 [Example E11, 1-Cyclobutyl4-[1-(4-cyano-2,6-difluorophenyl)-piperidine-4-carbonyl]-piperazine] | < 3.16 |
| N#Cc1ccc(N2CCC(C(=O)N3CCN(C4CCC4)CC3)CC2)cc1C(F)(F)F [Example E12, 1-Cyclobutyl-4-[1-(4-cyano-3-trifluoromethylphenyl)-piperidine-4-carbonyl]-piperazine] | < 3.16 |
| N#Cc1ccc(N2CCC(C(=O)N3CCN(C4CCC4)CC3)CC2)c2ccccc12 [Example E13, 1-Cyclobutyl-4-[1-(4-cyano-naphthalen-1-yl)-piperidine-4-carbonyl]-piperazine] | < 3.16 |
| N#Cc1ccc(N2CCC(C(=O)N3CCN(C4CCC4)CC3)CC2)nc1 [Example E14, 1-Cyclobutyl-4-[1-(5-cyanopyridin-2-yl)-piperidine-4-carbonyl]-piperazine] | < 3.16 |
| O=C(C1CCN(c2cccc(C(F)(F)F)n2)CC1)N1CCN(C2CCC2)CC1 [Example E15, 1-Cyclobutyl-4-[1-(6-trifluoromethylpyridin-2-yl)-piperidine-4-carbonyl]-piperazine] | < 3.16 |
| O=C(C1CCN(c2ccc(C(F)(F)F)cn2)CC1)N1CCN(C2CCC2)CC1 [Example E16, 1-Cyclobutyl-4-[1-(5-trifluoromethylpyridin-2-yl)-piperidine-4-carbonyl]-piperazine] | < 3.16 |
| CC(C)N1CCCN(C(=O)C2CCN(c3ccc(C#N)c4ccccc34)CC2)CC1 [Example E46, 1-Isopropyl-4-[1-(4-cyano-naphthalen-1-yl)-piperidine-4-carbonyl]-[1,4]-diazepane] | < 3.16 |

Results, then the compound that gave them:

| Kb [nM] | Compound |
| --- | --- |
| < 3.16 | O=C(C1CCN(c2ncc(C(F)(F)F)cc2Cl)CC1)N1CCN(C2CCC2)CC1 [Example E17, 1-Cyclobutyl-4-[1-(3-chloro-5-trifluoromethylpyridin-2-yl)-piperidine-4-carbonyl]-piperazine] |
| < 3.16 | CC(C)N1CCN(C(=O)C2CCN(c3ncc(-c4ccc(S(C)(=O)=O)cc4)cn3)CC2)CC1 [Example E25, 1-Isopropyl-4-{1-[5-(4-methylsulfonylphenyl)-pyrimidin-2-yl]-piperidine-4-carbonyl}-piperazine] |
| < 3.16 | CC(C)N1CCN(C(=O)C2CCN(c3ccc(C(=O)N4CCOCC4)cc3)CC2)CC1 [Example E30, 1-Isopropyl-4-{1-[4-(morpholino-carbonyl)-phenyl]-piperidine-4-carbonyl}-piperazine hydrochloride] |
| < 3.16 | N#Cc1ccc(N2CCC(C(=O)N3CCN(C4CCCC4)CC3)CC2)cc1 [Example E31, 1-Cyclopentyl-4-[1-(4cyano-phenyl)-piperidine-4-carbonyl]-piperazine hydrochloride] |
| < 3.16 | C[C@@H]1CN(C(=O)C2CCN(c3ccc(C#N)cc3)CC2)C[C@H](C)N1C1CCC1 [Example E33, (2R,6S)-1-Cyclobutyl-4-[1-(4-cyanophenyl)-piperidine-4-carbonyl]-2,6-dimethylpiperazine hydrochloride] |
| < 1 | N#Cc1ccc(N2CCC(C(=O)N3CCCN(C4CCC4)CC3)CC2)cc1 [Example E36, 1-Cyclobutyl-4-[1-(4-cyanophenyl)-piperidine4-carbonyl]-[1,4]-diazepane] |
| < 1 | N#Cc1ccc(N2CCC(C(=O)N3CCCN(C4CCC4)CC3)CC2)nc1 [Example E37, 1-Cyclobutyl-4-[1-(5-cyanopyridin-2-yl)-piperidine4-carbonyl]-[1,4]-diazepane] |
| < 1 | CC(C)N1CCCN(C(=O)C2CCN(c3ccc(C#N)cc3)CC2)CC1 [Example E38, 1-Isopropyl-4-[1-(4-cyanophenyl)-piperidine4-carbonyl]-[1,4]-diazepane] |
| < 3.16 | CC(C)N1CCCN(C(=O)C2CCN(c3cc(F)c(C#N)cc3F)CC2)CC1 [Example E39, 1-Isopropyl-4-[1-(4-cyano-2,5-difluorophenyl)-piperidine-4-carbonyl]-[1,4]-diazepane] |
| < 3.16 | CC(C)N1CCCN(C(=O)C2CCN(c3ccc(C#N)c(Cl)c3)CC2)CC1 [Example E40, 1-Isopropyl-4-[1-(4-cyano-3-chlorophenyl)-piperidine-4-carbonyl]-[1,4]-diazepane] |
| < 3.16 | CC(C)N1CCCN(C(=O)C2CCN(c3ccc(C#N)c(F)c3)CC2)CC1 [Example E41, 1-Isopropyl-4-[1-(4-cyano-3-fluoro-phenyl)-piperidine4-carbonyl]-[1,4]-diazepane] |
| < 3.16 | CC(C)N1CCCN(C(=O)C2CCN(c3c(F)cc(C#N)cc3F)CC2)CC1 [Example E42, 1-Isopropyl-4-[1-(4-cyano-2,6-difluoro-phenyl)-piperidine-4-carbonyl]-[1,4]-diazepane] |
| < 3.16 | CC(C)N1CCCN(C(=O)C2CCN(c3ccc(C#N)cc3F)CC2)CC1 [Example E43, 1-Isopropyl-4-[1-(4-cyano-2-fluoro-phenyl)-piperidine-4-carbonyl]-[1,4]-diazepane] |
| < 3.16 | CC(C)N1CCCN(C(=O)C2CCN(c3ccc(C#N)c(C(F)(F)F)c3)CC2)CC1 [Example E44, 1-Isopropyl4-[1-(4-cyano-3-trifluoromethyl-phenyl)-piperidine-4-carbonyl]-[1,4]-diazepane] |
| < 3.16 | CC(C)N1CCCN(C(=O)C2CCN(c3ccc(C(F)(F)F)cc3)CC2)CC1 [Example E45, 1-Isopropyl-4-[1-(4-trifluoromethyl-phenyl)-piperidine-4-carbonyl]-[1,4]-diazepane] |
| < 3.16 | CC(C)N1CCCN(C(=O)C2CCN(c3ccc(Cl)c(Cl)c3)CC2)CC1 [Example E54, 1-Isopropyl-4-[1-(3,4-dichlorophenyl)-piperidine-4-carbonyl]-[1,4]-diazepane] |
| < 3.16 | CC(C)N1CCCN(C(=O)C2CCN(c3ccc(OC(F)(F)F)cc3)CC2)CC1 [Example E56, 1-Isopropyl-4-[1-(4-trifluoromethoxyphenyl)-piperidine4-carbonyl]-[1,4]-diazepane] |
| < 3.16 | CC(C)N1CCCN(C(=O)C2CCN(c3ccc(OC(F)F)cc3)CC2)CC1 [Example E59, 1-Isopropyl-4-[1-(4-difluoromethoxyphenyl)-piperidine-4-carbonyl]-[1,4]-diazepane] |
| < 3.16 | CC(C)N1CCCN(C(=O)C2CCN(c3ccc(Oc4ccccc4)cc3)CC2)CC1 [Example E61, 1-Isopropyl-4-[1-(4-phenoxyphenyl)-piperidine-4-carbonyl]-[1,4]-diazepane] |
